According to patent US9708318B2, “Bicyclic heterocycles as FGFR4 inhibitors” (Incyte Corporation, priority 2015, dated 2017):
Like-named read-outs stand apart in the source and are kept apart here.

Columns and labels:
[1] = target: FGFR3 enzyme (Homo sapiens (Human), UniProt P22607); assay: FGFR Enzymatic Assay (FRET peptide phosphorylation), FGFR3; assay type: biochemical; conditions: for FGFR1/FGFR3 IC50 ratio / FGFR4/FGFR3 IC50 ratio: FGFR3 selectivity
Description: (§1) The inhibitor potency of the exemplified compounds was measured in an enzyme assay that measures peptide phosphorylation using FRET measurements to detect product formation. Inhibitors were serially diluted in DMSO and a volume of 0.5 μL was transferred to the wells of a 384-well plate.
(§2) GraphPad prism3 was used to analyze the data.

[2] = target: FGFR1 (Homo sapiens (Human), UniProt P11362); assay: FGFR Enzymatic Assay (FRET peptide phosphorylation), FGFR1
Sequence of FGFR1 (P11362 22-822): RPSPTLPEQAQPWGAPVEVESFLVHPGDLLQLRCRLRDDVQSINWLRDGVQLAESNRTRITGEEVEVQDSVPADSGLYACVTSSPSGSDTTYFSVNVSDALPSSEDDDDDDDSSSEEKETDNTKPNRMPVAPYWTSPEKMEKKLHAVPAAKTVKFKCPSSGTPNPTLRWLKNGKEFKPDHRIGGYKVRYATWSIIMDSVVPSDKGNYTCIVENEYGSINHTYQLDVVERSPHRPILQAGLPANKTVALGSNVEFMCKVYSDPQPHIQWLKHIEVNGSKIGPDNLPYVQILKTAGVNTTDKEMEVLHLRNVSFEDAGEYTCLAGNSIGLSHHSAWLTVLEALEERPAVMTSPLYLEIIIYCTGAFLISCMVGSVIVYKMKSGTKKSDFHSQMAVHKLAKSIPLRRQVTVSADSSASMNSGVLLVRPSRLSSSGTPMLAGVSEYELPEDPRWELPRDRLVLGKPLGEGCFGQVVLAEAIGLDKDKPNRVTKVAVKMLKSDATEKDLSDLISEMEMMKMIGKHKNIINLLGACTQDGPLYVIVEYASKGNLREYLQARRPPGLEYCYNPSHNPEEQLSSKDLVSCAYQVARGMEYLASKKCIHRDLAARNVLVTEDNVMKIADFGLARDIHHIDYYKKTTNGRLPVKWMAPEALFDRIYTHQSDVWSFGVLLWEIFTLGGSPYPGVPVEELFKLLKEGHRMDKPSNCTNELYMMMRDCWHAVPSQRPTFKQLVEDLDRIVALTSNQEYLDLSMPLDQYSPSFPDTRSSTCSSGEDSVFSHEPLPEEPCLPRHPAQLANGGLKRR

[3] = target: FGFR2 (Homo sapiens (Human), UniProt P21802); assay: FGFR Enzymatic Assay (FRET peptide phosphorylation), FGFR2; assay type: biochemical
Sequence of FGFR2 (P21802 22-821): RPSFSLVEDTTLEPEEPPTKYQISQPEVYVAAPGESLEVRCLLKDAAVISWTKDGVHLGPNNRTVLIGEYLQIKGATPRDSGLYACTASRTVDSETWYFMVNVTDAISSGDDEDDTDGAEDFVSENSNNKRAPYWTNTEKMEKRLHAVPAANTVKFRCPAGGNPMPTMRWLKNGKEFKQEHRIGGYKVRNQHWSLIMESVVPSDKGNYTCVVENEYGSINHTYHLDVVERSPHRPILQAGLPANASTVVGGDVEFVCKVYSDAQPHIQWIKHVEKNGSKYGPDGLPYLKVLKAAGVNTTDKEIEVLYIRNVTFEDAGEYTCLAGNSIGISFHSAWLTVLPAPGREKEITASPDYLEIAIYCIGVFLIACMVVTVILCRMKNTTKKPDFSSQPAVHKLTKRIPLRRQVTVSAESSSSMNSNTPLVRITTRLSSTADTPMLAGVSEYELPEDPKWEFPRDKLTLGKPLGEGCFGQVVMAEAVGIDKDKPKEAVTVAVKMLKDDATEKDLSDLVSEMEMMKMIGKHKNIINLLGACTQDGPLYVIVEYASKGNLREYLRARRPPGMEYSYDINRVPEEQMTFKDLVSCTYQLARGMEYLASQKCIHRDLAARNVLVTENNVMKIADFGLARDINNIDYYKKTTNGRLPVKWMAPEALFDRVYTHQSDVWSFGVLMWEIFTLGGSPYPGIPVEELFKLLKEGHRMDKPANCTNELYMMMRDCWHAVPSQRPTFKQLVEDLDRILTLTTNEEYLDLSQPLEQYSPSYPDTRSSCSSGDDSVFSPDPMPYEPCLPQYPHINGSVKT
Description: as §1
(§3) The enzymes were purchased from Millipore or Invitrogen.
as §2

[4] = target: FGFR4 (Homo sapiens (Human), UniProt P22455); assay: FGFR Enzymatic Assay (FRET peptide phosphorylation), FGFR4; assay type: biochemical; conditions: for FGFR1/FGFR4 IC50 ratio / FGFR2/FGFR4 IC50 ratio / FGFR3/FGFR4 IC50 ratio: FGFR4 selectivity
Sequence of FGFR4 (P22455 22-802): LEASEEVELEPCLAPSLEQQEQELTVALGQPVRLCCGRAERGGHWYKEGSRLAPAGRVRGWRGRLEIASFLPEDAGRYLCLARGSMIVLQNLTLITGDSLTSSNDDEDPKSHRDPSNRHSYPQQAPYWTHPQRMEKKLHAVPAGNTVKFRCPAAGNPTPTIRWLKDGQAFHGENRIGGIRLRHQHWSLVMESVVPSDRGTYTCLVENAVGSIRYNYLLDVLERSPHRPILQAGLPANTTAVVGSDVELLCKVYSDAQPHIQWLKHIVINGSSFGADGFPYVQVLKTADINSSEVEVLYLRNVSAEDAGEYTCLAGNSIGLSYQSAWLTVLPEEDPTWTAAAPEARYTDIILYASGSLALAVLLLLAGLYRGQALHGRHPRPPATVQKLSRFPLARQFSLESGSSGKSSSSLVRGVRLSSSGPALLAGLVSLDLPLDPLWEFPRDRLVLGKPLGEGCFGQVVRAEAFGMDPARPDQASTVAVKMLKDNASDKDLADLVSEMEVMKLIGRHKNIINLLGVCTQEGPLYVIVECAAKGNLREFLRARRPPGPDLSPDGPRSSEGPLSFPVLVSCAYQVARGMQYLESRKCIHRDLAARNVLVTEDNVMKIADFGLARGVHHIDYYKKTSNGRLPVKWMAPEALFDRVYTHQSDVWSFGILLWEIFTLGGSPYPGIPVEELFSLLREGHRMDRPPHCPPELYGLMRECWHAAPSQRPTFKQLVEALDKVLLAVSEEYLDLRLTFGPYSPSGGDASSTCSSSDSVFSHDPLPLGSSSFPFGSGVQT
Description: as §1, §3, §2

[5] = read-out: FGFR1 IC50, pre-incubated for 4 hours
[6] = pre-incubated for 4 hours, read-out: FGFR3 IC50
[7] = FGFR1 IC50 (nM), pre-incubated for 4 hours
[8] = pre-incubated for 5 to 10 minutes, read-out: FGFR3 IC50
[9] = read-out: FGFR1 IC50, pre-incubated for 5 to 10 minutes
[10] = pre-incubated for 5 to 10 minutes
[11] = FGFR1 IC50 (nM), pre-incubated for 5 to 10 minutes

Sequence of FGFR3 enzyme (P22607 23-806): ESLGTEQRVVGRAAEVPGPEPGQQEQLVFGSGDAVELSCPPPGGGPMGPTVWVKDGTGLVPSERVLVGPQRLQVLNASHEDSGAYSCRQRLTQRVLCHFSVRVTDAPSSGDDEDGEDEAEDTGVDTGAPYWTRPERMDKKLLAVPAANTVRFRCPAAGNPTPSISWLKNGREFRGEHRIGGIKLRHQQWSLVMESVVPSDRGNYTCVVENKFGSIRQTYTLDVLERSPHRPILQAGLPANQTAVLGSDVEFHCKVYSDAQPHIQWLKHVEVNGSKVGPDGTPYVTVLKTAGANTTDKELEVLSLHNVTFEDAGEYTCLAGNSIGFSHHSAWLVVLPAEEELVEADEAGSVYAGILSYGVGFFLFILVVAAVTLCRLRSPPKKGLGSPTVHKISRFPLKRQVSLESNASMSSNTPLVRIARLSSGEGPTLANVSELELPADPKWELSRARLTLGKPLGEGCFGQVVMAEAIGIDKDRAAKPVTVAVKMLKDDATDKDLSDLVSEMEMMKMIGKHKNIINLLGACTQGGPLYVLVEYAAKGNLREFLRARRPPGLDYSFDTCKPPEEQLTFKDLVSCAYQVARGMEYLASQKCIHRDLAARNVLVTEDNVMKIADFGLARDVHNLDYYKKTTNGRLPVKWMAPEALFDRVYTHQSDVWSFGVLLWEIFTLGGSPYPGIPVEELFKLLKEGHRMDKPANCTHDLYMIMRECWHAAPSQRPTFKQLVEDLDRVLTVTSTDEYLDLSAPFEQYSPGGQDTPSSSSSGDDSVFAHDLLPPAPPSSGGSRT

| SMILES | IC50 [1] [nM] | FGFR1/FGFR3 IC50 ratio ([1]; pre-incubated for 4 hours) | FGFR4/FGFR3 IC50 ratio ([1]; pre-incubated for 4 hours) | IC50 [2, 5] [nM] | IC50 ([3]; pre-incubated for 4 hours) [nM] | IC50 ([4]; pre-incubated for 4 hours) [nM] | IC50 [1, 6] [nM] | IC50 [2, 7] [nM] | IC50 [1, 8] [nM] | IC50 [2, 9] [nM] | IC50 [3, 10] [nM] | FGFR1/FGFR4 IC50 ratio [4, 10] | FGFR2/FGFR4 IC50 ratio [4, 10] | FGFR3/FGFR4 IC50 ratio [4, 10] | FGFR1/FGFR4 IC50 ratio ([4]; pre-incubated for 4 hours) | FGFR2/FGFR4 IC50 ratio ([4]; pre-incubated for 4 hours) | FGFR3/FGFR4 IC50 ratio ([4]; pre-incubated for 4 hours) | IC50 [4, 10] [nM] | IC50 [2, 11] [nM] |
| --- | --- | --- | --- | --- | --- | --- | --- | --- | --- | --- | --- | --- | --- | --- | --- | --- | --- | --- | --- |
| COc1cc(OC)c(F)c(N2Cc3cnc(-c4cn(C)nc4C)cc3N(C3CCN(C(C)=O)CC3)C2=O)c1F [Example 43, 1-(1-acetylpiperidin-4-yl)-3-(2,6-difluoro-3,5-dimethoxyphenyl)-7-(1,3-dimethyl-1H-pyrazol-4-yl)-3,4-dihydropyrido[4,3-d]pyrimidin-2(1H)-one] | 10 to 30 | >10 | >5 | > 200 | 30 to 200 | 30 to 200 |  |  |  |  |  |  |  |  |  |  |  |  |  |
| COc1cc(OC)c(F)c(N2Cc3cnc(-c4cnn(C5CCN(C(C)=O)C5)c4)cc3C3(CC3)C2=O)c1F (stereo not shown) [Example 150, 6′-(1-(1-acetylpyrrolidin-3-yl)-1H-pyrazol-4-yl)-2′-(2,6-difluoro-3,5-dimethoxyphenyl)-1′H-spiro[cyclopropane-1,4′-[2,7]naphthyridin]-3′(2′H)-one] |  | >5 | >5 | < 10 | < 10 | < 10 | < 10 |  |  |  |  |  |  |  |  |  |  |  |  |
| COc1cc(OC)c(F)c(N2Cc3cnc(-c4cn(C)nc4C)cc3C3(CC3)C2=O)c1F [Example 21, 2′-(2,6-difluoro-3,5-dimethoxyphenyl)-6′-(1,3-dimethyl-1H-pyrazol-4-yl)-1′,2′-dihydro-3′H-spiro[cyclopropane-1,4′-[2,7]naphthyridin]-3′-one] |  | >5 |  |  | < 10 | 10 to 30 | < 10 | 10 to 30 |  |  |  |  |  |  |  |  |  |  |  |
| COc1cc(OC)c(F)c(N2Cc3cnc(-c4cn(C)nc4C)cc3N(Cc3ccncn3)C2=O)c1F [Example 65, 3-(2,6-difluoro-3,5-dimethoxyphenyl)-7-(1,3-dimethyl-1H-pyrazol-4-yl)-1-(pyrimidin-4-ylmethyl)-3,4-dihydropyrido[4,3-d]pyrimidin-2(1H)-one] |  | >5 | >10 |  | < 10 | 30 to 200 | < 10 | 30 to 200 |  |  |  |  |  |  |  |  |  |  |  |
| COc1cc(OC)c(F)c(N2Cc3cnc(-c4cncc(C#N)c4)cc3C3(CC3)C2=O)c1F [Example 8, 5-(2′-(2,6-difluoro-3,5-dimethoxyphenyl)-3′-oxo-2′,3′-dihydro-1′H-spiro[cyclopropane-1,4′-[2,7]naphthyridine]-6′-yl)nicotinonitrile] |  | >5 |  | > 200 | > 200 | 10 to 30 | 30 to 200 |  | 30 to 200 | > 200 | > 200 | >50 | >10 | >10 | >50 | >10 | >10 | 10 to 30 |  |
| COc1cc(OC)c(F)c(N2Cc3cnc(-c4cn(C)nc4C)cc3N(Cc3csc(C)n3)C2=O)c1F [Example 95, 3-(2,6-difluoro-3,5-dimethoxyphenyl)-7-(1,3-dimethyl-1H-pyrazol-4-yl)-1-((2-methylthiazol-4-yl)methyl)-3,4-dihydropyrido[4,3-d]pyrimidin-2(1H)-one] |  | >5 | >10 |  | < 10 | 30 to 200 | < 10 | 10 to 30 |  |  |  |  |  |  |  |  |  |  |  |
| COc1cc(OC)c(F)c(N2Cc3cnc(-c4cncc(N5CCOCC5)c4)cc3C3(CC3)C2=O)c1F [Example 6, 2′-(2,6-difluoro-3,5-dimethoxyphenyl)-6′-(5-morpholinopyridin-3-yl)-1′H-spiro[cyclopropane-1,4′-[2,7]naphthyridin]-3′(2′H)-one] |  | >3 |  | > 200 | > 200 | < 10 | 30 to 200 |  | 30 to 200 | > 200 | > 200 | >100 | >100 | >50 | >100 | >100 | >25 | < 10 |  |
| COc1cc(OC)c(F)c(N2Cc3cnc(-c4cn(C)nc4C)cc3N(c3ccccc3F)C2=O)c1F [Example 110, 3-(2,6-difluoro-3,5-dimethoxyphenyl)-7-(1,3-dimethyl-1H-pyrazol-4-yl)-1-(2-fluorophenyl)-3,4-dihydropyrido[4,3-d]pyrimidin-2(1H)-one] |  | >3 | >5 |  | < 10 | 30 to 200 | < 10 | 10 to 30 |  |  |  |  |  |  |  |  |  |  |  |
| COc1cc(OC)c(F)c(N2Cc3cnc(-c4ccc(C5(C#N)CCC5)nc4)cc3N(Cc3nnc(C)o3)C2=O)c1F [Example 187, 1-(5-{3-(2,6-difluoro-3,5-dimethoxyphenyl)-1-[(5-methyl-1,3,4-oxadiazol-2-yl)methyl]-2-oxo-1,2,3,4-tetrahydropyrido[4,3-d]pyrimidin-7-yl}pyridin-2-yl)cyclobutanecarbonitrile] |  | >10 | >10 |  | < 10 | 30 to 200 | < 10 | 30 to 200 | < 10 |  | < 10 |  |  |  |  |  |  | 30 to 200 | 10 to 30 |
| COc1cc(OC)c(F)c(N2Cc3cnc(-c4cnn(CC5CCCS(=O)(=O)N5)c4)cc3C3(CC3)C2=O)c1F (stereo not shown) [Example 162, 2′-(2,6-difluoro-3,5-dimethoxyphenyl)-6′-{1-[(1,1-dioxido-1,2-thiazinan-3-yl)methyl]-1H-pyrazol-4-yl}-1′H-spiro[cyclopropane-1,4′-[2,7]naphthyridin]-3′(2′H)-one] |  | >5 | >1 |  | < 10 | < 10 | < 10 | 10 to 30 |  |  |  |  |  |  |  |  |  |  |  |
| COc1cc(OC)c(F)c(N2Cc3cnc(-c4nn(CC5CCOCC5)cc4C#N)cc3C3(CC3)C2=O)c1F [Example 173, 3-(2′-(2,6-difluoro-3,5-dimethoxyphenyl)-3′-oxo-2′,3′-dihydro-1′H-spiro[cyclopropane-1,4′-[2,7]naphthyridine]-6′-yl)-1-((tetrahydro-2H-pyran-4-yl)methyl)-1H-pyrazole-4-carbonitrile] |  |  |  | > 200 | > 200 | 10 to 30 | > 200 |  |  |  |  |  |  |  | >100 | >100 | >50 |  |  |
| COc1cc(OC)c(F)c(N2Cc3cnc(-c4cncc(N)c4)cc3C3(CC3)C2=O)c1F [Example 4, 6′-(5-aminopyridin-3-yl)-2′-(2,6-difluoro-3,5-dimethoxyphenyl)-1′H-spiro[cyclopropane-1,4′-[2,7]naphthyridin]-3′(2′H)-one] |  | >1 |  |  | 30 to 200 | < 10 | 30 to 200 | 30 to 200 | 10 to 30 |  | 10 to 30 | >10 | >10 | >5 | >25 | >10 | >10 | < 10 | 30 to 200 |
| COc1cc(OC)c(F)c(N2Cc3cnc(-c4cn(C)nc4C)cc3N(Cc3ccc(F)c(F)c3)C2=O)c1F [Example 73, 3-(2,6-difluoro-3,5-dimethoxyphenyl)-1-(3,4-difluorobenzyl)-7-(1,3-dimethyl-1H-pyrazol-4-yl)-3,4-dihydropyrido[4,3-d]pyrimidin-2(1H)-one] |  | >5 | >10 |  | 10 to 30 | 30 to 200 | 10 to 30 | 30 to 200 |  |  |  |  |  |  |  |  |  |  |  |
